Test results as given in US11435363B2, “Relevance of achieved levels of markers of systemic inflammation following treatment” (The Brigham and Women's Hospital, Inc., priority 2004, dated 2022).

Legend:
[1] = test system: LDLC; assay: PROVE IT-TIMI 22: LDLC levels on statin therapy; assay type: in vivo, human; settings: for proportion of allocated patients who achieved an LDLC goal of <70 mg/dL: day 30, atorvastatin 80 mg or pravastatin 40 mg, P<0.001
Source text: (§1) In total, 4,162 patients who had been hospitalized within the preceding 10 days for acute coronary syndrome and provided written informed consent were enrolled at 349 sites in eight countries. Approximately two-thirds had acute myocardial infarction and the remainder had high-risk unstable angina.
(§2) For this analysis, we defined achieved LDLC and achieved CRP levels as those values obtained at the 30 day follow-up, a period of time adequate for the effect of statin therapy to be seen for both LDLC and CRP and a time when any residual effects of ischemia on each parameter would no longer be evident. Of the total cohort, 3,745 participants (90.0 percent) were alive and free of a recurrent event at day 30 and underwent evaluation for both LDLC and CRP at that time. All laboratory measurements were made in core facilities and a validated assay for high sensitivity CRP used (Denka Seiken).
Spearman correlation coefficients were used to evaluate the relationship between achieved LDLC and achieved CRP. We then used a multi-stage process to address the impact of achieved LDLC and achieved CRP levels on rates of recurrent myocardial infarction or fatal coronary events that occurred after day 30 in the study. First, we divided the study population into increasing quartiles of achieved LDLC and achieved CRP and sought evidence that these levels were associated with increased risk of recurrent myocardial infarction or coronary death, both in age-adjusted analyses and after further adjustment for gender, smoking status (current/non-smoker), diabetes, body mass index (kg/m^2), and history of hypertension. […] To address the relative impact of achieved CRP across LDLC strata, we repeated this process after dividing the study cohort into four groups on the basis of achieved LDLC levels and achieved CRP levels above or below the respective values of 70 mg/dL and 2.0 mg/L. A test for trend across groups was performed assigning a score of 0 to those with low levels of both, a score of 1 to the two intermediate groups, and a score of 2 to those with high levels of both. […]

[2] = test system: acute coronary syndrome patients; assay: PROVE IT-TIMI 22: recurrent myocardial infarction or coronary death after day 30; assay type: in vivo, human; settings: for recurrent event rate, achieved LDLC <70 mg/dL and achieved CRP greater than 2.0 mg/L / recurrent event rate, achieved LDLC <70 mg/dL and achieved CRP less than 2.0 mg/L: recurrent myocardial infarction or coronary death, P for difference between agents=0.7
Source text: as §1, §2
(§3) Spearman correlation coefficients were used to evaluate the relationship between achieved LDLC and achieved CRP. We then used a multi-stage process to address the impact of achieved LDLC and achieved CRP levels on rates of recurrent myocardial infarction or fatal coronary events that occurred after day 30 in the study. First, we divided the study population into increasing quartiles of achieved LDLC and achieved CRP and sought evidence that these levels were associated with increased risk of recurrent myocardial infarction or coronary death, both in age-adjusted analyses and after further adjustment for gender, smoking status (current/non-smoker), diabetes, body mass index (kg/m^2), and history of hypertension. […] To address the relative impact of achieved CRP across LDLC strata, we repeated this process after dividing the study cohort into four groups on the basis of achieved LDLC levels and achieved CRP levels above or below the respective values of 70 mg/dL and 2.0 mg/L. A test for trend across groups was performed assigning a score of 0 to those with low levels of both, a score of 1 to the two intermediate groups, and a score of 2 to those with high levels of both. Similar analyses were performed after stratification of the study group according to atorvastatin or pravastatin allocation. Estimates of hazard ratios were obtained using Cox proportional-hazards models.

[3] = test system: CRP; settings: for median CRP level at day 30 / median CRP level at end of study: atorvastatin 80 mg/day or pravastatin 40 mg/day orally; for median CRP level at day 30 / median CRP level at end of study / proportion of treated patients who achieved CRP levels below 2.0 at day 30: P<0.001; for median CRP level at end of study: end of study (mean 24 months); for proportion of treated patients who achieved CRP levels below 2.0 at day 30: atorvastatin 80 mg or pravastatin 40 mg
Source text: as §1, §2, §3

[4] = test system: acute coronary syndrome patients; settings: overall trial result, reference (7); cited from earlier work

SMILES | LDLC levels compared with the pravastatin group ([1]; day 30, 4 months and end of study, identical at randomization) | proportion of allocated patients who achieved an LDLC goal of <70 mg/dL [1] [%] | fully adjusted hazard ratio for atorvastatin vs pravastatin, clinical outcomes ([2]; after accounting for achieved LDLC and achieved CRP, 95% CI 0.75 to 1.34, P=0.9) | recurrent event rate, achieved LDLC <70 mg/dL and achieved CRP greater than 2.0 mg/L [2] [per 100 person-years] | recurrent event rate, achieved LDLC <70 mg/dL and achieved CRP less than 2.0 mg/L [2] [per 100 person-years] | median CRP level at day 30 [3] [mg/L] | median CRP level at end of study [3] [mg/1] | proportion of treated patients who achieved CRP levels below 2.0 at day 30 [3] [%] | overall clinical outcome in the PROVE IT-TIMI 22 trial [4] | effect on CRP levels ([3]; gatifloxicin versus placebo allocation in this population)
CC(C)c1c(C(=O)Nc2ccccc2)c(-c2ccccc2)c(-c2ccc(F)cc2)n1CC[C@@H](O)C[C@@H](O)CC(=O)O [atorvastatin] | significantly lower | 72.3 | 1.00 | 3.1 | 2.3 | 1.6 | 1.3 | 57.5 | superior to pravastatin overall | –
COc1c(N2CCNC(C)C2)c(F)cc2c(=O)c(C(=O)O)cn(C3CC3)c12 (stereo not shown) [gatifloxicin] | – | – | – | – | – | – | – | – | – | no significant effect on CRP levels
CC[C@H](C)C(=O)O[C@H]1C[C@H](O)C=C2C=C[C@H](C)[C@H](CC[C@@H](O)C[C@@H](O)CC(=O)O)[C@H]21 [pravastatin] | – | 21.7 | – | 3.4 | 2.5 | 2.3 | 2.1 | 44.9 | – | –
